“Also recorded” adds a separate entry of the source.
B1: DkTx: the bivalent toxin DkTx from tiger tarantula Ornithoctonus huwena (peptide, UniProt P0CH43 1-79, looked up)
Tau-theraphotoxin-Hs1a: DCAKEGEVCSWGKKCCDLDNFYCPMEFIPHCKKYKPYVPVTTNCAKEGEVCGWGSKCCHGLDCPLAFIPYCEKYRGRND
modifications: Tau-theraphotoxin-Hs1a
notes: the bivalent toxin DkTx from tiger tarantula Ornithoctonus huwena

Assays:
rat TRPV1 [1] = molecular target: T1, rat TRPV1 (Rattus norvegicus, UniProt O35433); format: cell-based
T1 construct: expressed in transfected cells; host or cells: CHO cells (T-Rex System, Invitrogen; tetracycline-induced)
Experimental: Recordings were made by a patch-clamp technique in whole-cell configuration using CHO cells stably expressing rat TRPV1. Whole-cell currents were recorded and digitized by Instru TECH LIH 8+8 data acquisition system (HEKA, Germany) at -80 mV holding voltage using EPC-8 (HEKA, Germany) amplifier, filtered at 5 kHz, sampled at 10kHz and stored. The external solution contained in mM: CaCl2 2.5, KCl 5, NaCl 143, D-glucose 18, HEPES 10, pH 7.35. Patch pipettes (2–5 MΩ resistance) were prepared by puller model P-97 (Sutter Instruments, USA). Pipette solution contained in mM: CsF 100, CsCl 40, NaCl 5, CaCl2 0.5, EGTA 5, HEPES 10, pH 7.2. Series resistance of about 20 MΩ was compensated by 70–80% and monitored during experiments. Drugs were applied using the ALA-VM8 (ALA Scientific Instruments, USA) perfusion system under computer control. All experiments were performed at 22°C.
(§1) All data were expressed as the mean ± standard deviation (SD). Significance of the effect was tested by ANOVA followed by Tukey’s post hoc analysis with the p-value of 0.05.
The cell line stably expressing rat TRPV1 was used for electrophysiological and internal Ca^2+ fluorescent recordings. […] In Fluo-4-based intracellular calcium assay experiments, capsaicin or 2APB were used as channel agonists. […] To take the response rundown in account, the peptide effects were measured relative to the average value of the preceding and subsequent control responses (see S2 Fig).
Fig 1 Action of APHCs on capsaicin-induced TRPV1 currents. […] G, Current–voltage relationship for TRPV1 currents induced by 3 and 0.3 μM capsaicin in control (black and red) and in the presence of 100 nM APHC1 (blue and magenta). […] I, Summary of the polypeptides action (100 nM) on TRPV1 responses activated by different concentrations of capsaicin, n = 9 for all series.

rat TRPV1 [2] = molecular target: T1, rat TRPV1; format: cell-based; remark: listed apart in the source
Experimental: as §1

human TRPV1 = conditions: cited from earlier work
Text: (§2) Since elaboration of TRPV1 pharmacology has obvious perspectives related to the potential treatment of pain and inflammation, many compounds affecting TRPV1 activation have been characterized. Some TRPV1 ligands have distinct effects on different modes of channel activation (heat, protons or chemical ligands).

rat TRPV1 [3] = molecular target: T1, rat TRPV1; conditions: ref [8], [10], [11]; cited from earlier work
Text: as §2

monkey TRPV1 = conditions: ref [10], [11]; cited from earlier work
Text: as §2

TRPV1 = system: TRPV1; set-up: method as in PMID 17093448, PMID 20510930, PMID 26420335, PMID 24061123; conditions: ref [20], [21], [22], [39]; cited from earlier work
mice = conditions: ref [20], [21], [22]; cited from earlier work
Text: Small lipophilic drugs can potentially reach their binding sites in different parts of a receptor, which complicates the study of mechanisms of action. Binding sites for membrane-impermeable peptide modulators should be localized at the outside surface of a channel protein. There are a few examples of polypeptides affecting TRPV1 channels.

T1 sequence (O35433 whole entry): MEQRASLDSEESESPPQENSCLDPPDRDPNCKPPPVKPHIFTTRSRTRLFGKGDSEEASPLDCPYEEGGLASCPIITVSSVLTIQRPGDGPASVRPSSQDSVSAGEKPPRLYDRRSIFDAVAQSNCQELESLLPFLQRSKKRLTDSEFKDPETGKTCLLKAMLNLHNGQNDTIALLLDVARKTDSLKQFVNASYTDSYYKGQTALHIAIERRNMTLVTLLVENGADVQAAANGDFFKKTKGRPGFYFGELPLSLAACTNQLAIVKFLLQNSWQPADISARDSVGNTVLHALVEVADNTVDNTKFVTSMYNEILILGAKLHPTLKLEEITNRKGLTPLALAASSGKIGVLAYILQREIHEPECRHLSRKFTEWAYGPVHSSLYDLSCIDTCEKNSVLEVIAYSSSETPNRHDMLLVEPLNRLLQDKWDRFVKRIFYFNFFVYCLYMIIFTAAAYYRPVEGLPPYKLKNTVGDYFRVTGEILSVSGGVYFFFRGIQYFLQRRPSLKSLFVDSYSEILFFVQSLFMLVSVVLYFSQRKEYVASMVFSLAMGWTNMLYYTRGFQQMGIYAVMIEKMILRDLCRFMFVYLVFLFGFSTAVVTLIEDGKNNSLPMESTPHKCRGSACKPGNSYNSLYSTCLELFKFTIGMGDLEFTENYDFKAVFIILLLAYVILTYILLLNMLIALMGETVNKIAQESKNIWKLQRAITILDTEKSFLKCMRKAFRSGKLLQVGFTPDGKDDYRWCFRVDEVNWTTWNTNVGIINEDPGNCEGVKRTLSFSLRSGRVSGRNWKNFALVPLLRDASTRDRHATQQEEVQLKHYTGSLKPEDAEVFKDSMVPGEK

Molecule | reversal voltage of evoked currents (rat TRPV1 [1]) | effect on capsaicin response of rat TRPV1 (rat TRPV1 [3]) | effect on heat response of rat TRPV1 (rat TRPV1 [3]) | effect on proton response of rat TRPV1 (rat TRPV1 [3]) | also measured
NCCOB(c1ccccc1)c1ccccc1 [2APB, 2-aminoethoxydiphenyl borate] | close to zero | – | – | – | Ca2+ influx on agonist application (rat TRPV1 [2]): did not result in a detectable Ca^2+ influx
O=C(/C=C/c1ccc(C(F)(F)F)cc1N1CCCCC1)Nc1cccc2c1C[C@H](O)C2 [AMG8562, (R,E)-N-(2-hydroxy-2,3-dihydro-1H-inden-4-yl)-3-(2-(piperidin-1-yl)-4-(trifluoromethyl)phenyl)-acrylamide] | – | blocks capsaicin activation | does not affect heat activation | potentiates proton activation | effect on capsaicin activation of human TRPV1 (human TRPV1; ref [11]): blocks both heat and capsaicin activation; effect on heat activation of human TRPV1 (human TRPV1; ref [11]): blocks both heat and capsaicin activation; effect on proton activation of human TRPV1 (human TRPV1; ref [11]): partial antagonist of proton activation
CC(C)(C)c1ccc(CNC(=S)NCc2ccc(NS(C)(=O)=O)c(F)c2)cc1 [JYL-1421] | – | blocks responses to capsaicin | – | not to heat or protons | action profile of rat TRPV1 (block of capsaicin, not heat or protons) on human TRPV1 (human TRPV1; ref [10], [11]): could not be shown; action profile of rat TRPV1 (block of capsaicin, not heat or protons) on monkey TRPV1 (monkey TRPV1): could not be shown
COc1cc(CNC(=O)CCCC/C=C/C(C)C)ccc1O [capsaicin] | close to zero | – | – | – | –
Oc1cc2c(cc1O)CN(C(=S)NCCc1ccc(Cl)cc1)CCC2 [capsazepine] | – | heat and capsaicin responses are blocked at low capsazepine concentrations | heat and capsaicin responses are blocked at low capsazepine concentrations | ineffective as an antagonist of proton-induced response | block of capsaicin-evoked currents (rat TRPV1 [1]): reversibly blocked; also recorded: abolished; block of calcium responses to capsaicin (rat TRPV1 [2]): fully blocked; also recorded: abolished
B1 | – | – | – | – | action on TRPV1 (TRPV1): Peptide agonists of TRPV1; effect when injected in mice (mice): cause pain behavior
